Results on one compound are retold here after patent US20090142431A1 (U.S. Nutraceuticals, LLC d/b/a Valensa International, priority 2005, published 2009).

One experiment relates to poxvirus vGK5. Type of experiment: cell-based.
The conditions of experiment [1]: compared with alpha-tocopherol; cited from earlier work.

Regarding `CC1=C(/C=C/C(C)=C/C=C/C(C)=C/C=C/C=C(C)/C=C/C=C(C)/C=C/C2=C(C)C(=O)C(O)CC2(C)C)C(C)(C)CC(O)C1=O` (stereo not drawn) [astaxanthin, 3,3′-dihydroxy-β,β-carotene-4,4′-dione], the IC50 result in the experiment with poxvirus vGK5 is “less than 125 ppm”. The “ability to quench singlet oxygen relative to alpha-tocopherol” value in experiment [1] was “over five hundred times”.
